According to US20210244029A1, “ANTIMICROBIAL COMPOSITIONS” (Aseptic Health, LLC, priority 2019, published 2021):

System: Pseudomonas aeruginosa ATCC 27853
Experiment: Minimal inhibitory concentration (MIC) by serial 1:2 dilutions
Format: cell-based
Settings: MIC = greatest dilution at which 100% of a starting culture of 1 × 10^6 bacteria are killed

## Sodium Chlorite [0.5% Sodium Chlorite]
  MIC against Pseudomonas aeruginosa ATCC 27853: ⅛
